According to US12054498B2, “Heteroaromatic macrocyclic ether chemotherapeutic agents” (Nuvalent, Inc., priority 2020, dated 2024):

Key:
[1] = biological target: T1, Ba/F3 cells CD74-ROS1 G2032R (Homo sapiens, UniProt P08922, G2032R); test: Ba/F3 cell proliferation assay, CD74-ROS1 G2032R; assay type: cell-based; conditions: 72 hours, CellTiter-Glo
T1 construct: fusion of the C-terminus of ROS1 with the N-terminus of various partner proteins; host or cells: Ba/F3 (RIKEN), retroviral pMSCV-puro; the other entry of the earlier key: CD74 (P04233, HLA class II histocompatibility antigen gamma chain)
Procedure, shortened: (§1)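 IL-3-independent Ba/F3 CD74-ROS1 lines, puromycin-selected monoclones; 1,000 cells/well, plated 1 d before dosing; 3-fold serial dilutions, 72 h; CellTiter-Glo luminescence; IC50 by 4-parameter logistic regression.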

[2] = biological target: T2, Ba/F3 cells EML4-ALK wt (variant 1) (Homo sapiens, UniProt Q9UM73); test: Ba/F3 cell proliferation assay, EML4-ALK wt (variant 1); assay type: cell-based; conditions: 72 hours, CellTiter-Glo
T2 construct: echinoderm microtubule-associated protein-like 4 (EML4) gene and the ALK tyrosine kinase domain; host or cells: Ba/F3 (RIKEN), retroviral pMSCV-puro; the other entry of the earlier key: EML4 (Q9HC35, Echinoderm microtubule-associated protein-like 4)
Procedure, shortened: (§2)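 IL-3-independent Ba/F3 lines stably expressing the fusion kinase (retroviral, puromycin-selected), 1,000 cells/well, treated with 3-fold compound dilutions for 72 h. Viability by CellTiter-Glo luminescence; IC50 from four-parameter logistic fit of percent inhibition.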

ROS1-wt = biological target: T3, ROS1-wt (Homo sapiens, UniProt P08922); test: Biochemical kinase assay, ROS1-wt kinase domain; conditions: apparent inhibitory constant, Morrison equation; ATP 2 mM in substrate solution; read-out: ROS1-wt Ki^app
T3 construct: purchased Carna 08-163
Procedure, shortened: (§3)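 Compounds, as 100-fold DMSO stocks, were dispensed first, then substrate mix was added (ATP 2 mM, AQT0101 26 μM, in 50 mM HEPES pH 7.5/10 mM MgCl2). Reactions ran at 30 °C with fluorescence logged every 2 min over 120 min. Apparent inhibition constants came from fitting rates to Morrison's tight-binding equation.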

ROS1-G2032R = biological target: T4, ROS1-G2032R (Homo sapiens, UniProt P08922, G2032R); test: Biochemical kinase assay, ROS1-G2032R kinase domain; conditions: apparent inhibitory constant, Morrison equation; ATP 2 mM in substrate solution; read-out: ROS1-G2032R Ki^app
T4 construct: purchased SignalChem R14-12BG
Procedure, shortened: as §3

[3] = biological target: T5, Ba/F3 cells EML4-ALK L1196M/G1202R (variant 1) (Homo sapiens, UniProt Q9UM73, G1202R/L1196M); test: Ba/F3 cell proliferation assay, EML4-ALK L1196M/G1202R (variant 1); assay type: cell-based; conditions: 72 hours, CellTiter-Glo
T5 construct: echinoderm microtubule-associated protein-like 4 (EML4) gene and the ALK tyrosine kinase domain; host or cells: Ba/F3 (RIKEN), retroviral pMSCV-puro; the other entry of the earlier key: EML4 (Q9HC35, Echinoderm microtubule-associated protein-like 4)
Procedure, shortened: as §2

[4] = biological target: T6, Ba/F3 cells CD74-ROS1 wild-type (wt) (Homo sapiens, UniProt P08922); test: Ba/F3 cell proliferation assay, CD74-ROS1 wild-type; assay type: cell-based; conditions: 72 hours, CellTiter-Glo
T6 construct: fusion of the C-terminus of ROS1 with the N-terminus of various partner proteins; host or cells: Ba/F3 (RIKEN), retroviral pMSCV-puro; the other entry of the earlier key: CD74 (P04233, HLA class II histocompatibility antigen gamma chain)
Procedure, shortened: as §1

[5] = tested on: TPM3-NTRK1-wt IC50 / primary target IC50 (e.g. CD74-ROS1-wt); test: TRKA selectivity in Ba/F3 cells (TRKA potency divided by primary target potency); assay type: cell-based; conditions: for TPM3-NTRK1-wt/CD74-ROS1-G2032R selectivity ratio: TRKA potency / CD74-ROS1-G2032R potency; for TPM3-NTRK1-wt/CD74-ROS1-wt selectivity ratio: TRKA potency / CD74-ROS1-wt potency; for TPM3-NTRK1-wt/EML4-ALK-L1196M-G1202R selectivity ratio: TRKA potency / EML4-ALK-L1196M-G1202R potency; for TPM3-NTRK1-wt/EML4-ALK-wt selectivity ratio: TRKA potency / EML4-ALK-wt potency
Description: TRKA selectivity was calculated by dividing a compound's TRKA potency by its primary target potency (e.g. TPM3-NTRK1-wt IC50/CD74-ROS1-wt IC50). Compound selectivity can be interpreted by binning ratio values: bin A for very high selectivity, ratio >30-fold; bin B for high selectivity, ratio >10-fold; bin C for moderate selectivity, ratio ≥1; and bin D for low selectivity, ratio <1. […] (nd=not determined).

ALK L1196M/G1202R = biological target: T7, ALK L1196M/G1202R (Homo sapiens, UniProt Q9UM73, G1202R/L1196M); test: Biochemical kinase assay, ALK L1196M/G1202R kinase domain; conditions: apparent inhibitory constant, Morrison equation; ATP 2 mM in substrate solution; read-out: ALK-L1196M-G1202R Ki^app
T7 construct: purchased SignalChem A19-12NG
Procedure, shortened: (§4)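 Kinase domains (in kinase solution: ROS1-G2032R 0.5 nM, ROS1-wt 0.6 nM, TRKA 1 nM, ALK L1196M/G1202R 3 nM) were mixed with compound and a substrate solution of 2 mM ATP plus 26 μM fluorogenic AQT0101 (ALK, ROS1) or AQT0104 (TRKA) in HEPES pH 7.5/MgCl2. Fluorescence was followed for 120 min at 30° C; Ki^app was obtained by Morrison fit of initial rates.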

ALK-wt = biological target: T8, ALK-wt (Homo sapiens, UniProt Q9UM73); test: Biochemical kinase assay, ALK-wt kinase domain; conditions: apparent inhibitory constant, Morrison equation; ATP 2 mM in substrate solution; read-out: ALK-wt Ki^app
T8 construct: purchased Carna 08-518
Procedure, shortened: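 Apparent Ki values come from fitting initial reaction rates against inhibitor concentration to the Morrison equation. Rates were taken from the linear phase of fluorogenic substrate phosphorylation (AQT0101 for ALK and ROS1, AQT0104 for TRKA; 26 μM in substrate solution with 2 mM ATP), monitored at 485 nm over 120 min at 30° C.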

TRKA-wt = biological target: T9, TRKA-wt (Homo sapiens, UniProt P04629); test: Biochemical kinase assay, TRKA-wt kinase domain; conditions: apparent inhibitory constant, Morrison equation; ATP 2 mM in substrate solution; read-out: TRKA-wt Ki^app
T9 construct: or TRKA-wt (1 nM, BPS Bio, 40280) kinase domains in buffer; purchased BPS Bio 40280
Procedure, shortened: as §4

Ba/F3 cells TPM3-TRKA = biological target: T10, Ba/F3 cells TPM3-TRKA (Homo sapiens, UniProt P04629); test: Ba/F3 cell proliferation assay, TPM3-TRKA; assay type: cell-based; conditions: 72 hours, CellTiter-Glo, read-out: TPM3-NTRK1-wt IC50
T10 construct: host or cells: Ba/F3 (RIKEN), retroviral pMSCV-puro; the other entry of the earlier key: TPM3 (P06753, Tropomyosin alpha-3 chain)
Procedure, shortened: as §2

T5 sequence (Q9UM73 with tags, fused parts or gaps L1196M/G1202R): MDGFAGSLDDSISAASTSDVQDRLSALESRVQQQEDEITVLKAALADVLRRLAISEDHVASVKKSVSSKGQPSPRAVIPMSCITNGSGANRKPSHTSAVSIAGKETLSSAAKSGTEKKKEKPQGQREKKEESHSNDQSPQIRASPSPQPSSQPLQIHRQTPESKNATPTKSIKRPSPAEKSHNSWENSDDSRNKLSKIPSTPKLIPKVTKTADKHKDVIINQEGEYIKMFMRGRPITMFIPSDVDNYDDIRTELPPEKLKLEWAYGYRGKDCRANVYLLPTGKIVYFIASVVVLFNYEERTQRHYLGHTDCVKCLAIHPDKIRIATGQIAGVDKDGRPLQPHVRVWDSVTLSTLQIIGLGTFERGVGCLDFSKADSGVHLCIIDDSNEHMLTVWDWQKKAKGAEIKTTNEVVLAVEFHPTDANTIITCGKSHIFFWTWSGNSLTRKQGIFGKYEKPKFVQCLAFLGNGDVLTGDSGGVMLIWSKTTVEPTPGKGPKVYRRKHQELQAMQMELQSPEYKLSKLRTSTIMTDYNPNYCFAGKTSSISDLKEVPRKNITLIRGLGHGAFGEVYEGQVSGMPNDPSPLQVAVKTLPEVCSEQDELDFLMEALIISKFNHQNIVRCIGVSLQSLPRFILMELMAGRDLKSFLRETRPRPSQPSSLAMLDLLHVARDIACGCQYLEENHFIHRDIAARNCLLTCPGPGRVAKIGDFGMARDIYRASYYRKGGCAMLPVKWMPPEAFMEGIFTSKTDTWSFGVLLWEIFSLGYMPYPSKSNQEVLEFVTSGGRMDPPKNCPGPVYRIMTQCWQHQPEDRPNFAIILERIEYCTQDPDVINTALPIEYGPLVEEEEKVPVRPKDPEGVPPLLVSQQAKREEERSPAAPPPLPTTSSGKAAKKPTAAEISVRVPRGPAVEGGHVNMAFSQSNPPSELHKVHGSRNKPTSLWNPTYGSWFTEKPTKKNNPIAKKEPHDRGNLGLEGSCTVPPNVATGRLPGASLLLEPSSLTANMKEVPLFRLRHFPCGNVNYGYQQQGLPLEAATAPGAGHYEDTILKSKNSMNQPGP
T10 sequence (P04629 510-796 limits assumed): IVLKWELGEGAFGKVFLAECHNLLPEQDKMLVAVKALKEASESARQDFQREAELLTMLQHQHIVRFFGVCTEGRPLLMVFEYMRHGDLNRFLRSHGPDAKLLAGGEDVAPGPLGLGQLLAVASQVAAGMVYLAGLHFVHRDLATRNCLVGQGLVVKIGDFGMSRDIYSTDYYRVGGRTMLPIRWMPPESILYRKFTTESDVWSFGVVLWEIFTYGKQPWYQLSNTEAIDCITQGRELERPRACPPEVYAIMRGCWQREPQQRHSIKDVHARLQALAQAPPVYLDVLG
T9 sequence (P04629 510-781 limits assumed): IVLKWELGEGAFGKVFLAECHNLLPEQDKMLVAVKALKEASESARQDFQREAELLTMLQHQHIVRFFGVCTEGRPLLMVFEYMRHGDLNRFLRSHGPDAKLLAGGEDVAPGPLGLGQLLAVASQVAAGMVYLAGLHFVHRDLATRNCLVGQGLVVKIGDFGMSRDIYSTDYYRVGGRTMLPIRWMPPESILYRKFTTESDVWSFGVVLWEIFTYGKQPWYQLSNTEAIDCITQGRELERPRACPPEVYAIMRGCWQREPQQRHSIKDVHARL
T4 sequence (P08922 1945-2222 G2032R limits assumed): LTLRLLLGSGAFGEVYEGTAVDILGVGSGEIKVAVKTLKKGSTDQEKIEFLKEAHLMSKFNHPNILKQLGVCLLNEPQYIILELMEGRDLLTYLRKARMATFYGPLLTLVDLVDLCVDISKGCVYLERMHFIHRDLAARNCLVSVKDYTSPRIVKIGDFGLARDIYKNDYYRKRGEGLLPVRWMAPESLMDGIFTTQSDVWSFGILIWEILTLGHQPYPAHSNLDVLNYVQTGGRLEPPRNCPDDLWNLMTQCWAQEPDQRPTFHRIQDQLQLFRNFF
T3 sequence (P08922 1945-2222 limits assumed): as the sequence (P08922 1945-2222 G2032R limits assumed) above, with R88G counted along it
T2 sequence (Q9UM73 with tags, fused parts or gaps): as the sequence (Q9UM73 with tags, fused parts or gaps L1196M/G1202R) above, with M635L, R641G counted along it
T6 sequence (P08922 1883-2347 limits assumed): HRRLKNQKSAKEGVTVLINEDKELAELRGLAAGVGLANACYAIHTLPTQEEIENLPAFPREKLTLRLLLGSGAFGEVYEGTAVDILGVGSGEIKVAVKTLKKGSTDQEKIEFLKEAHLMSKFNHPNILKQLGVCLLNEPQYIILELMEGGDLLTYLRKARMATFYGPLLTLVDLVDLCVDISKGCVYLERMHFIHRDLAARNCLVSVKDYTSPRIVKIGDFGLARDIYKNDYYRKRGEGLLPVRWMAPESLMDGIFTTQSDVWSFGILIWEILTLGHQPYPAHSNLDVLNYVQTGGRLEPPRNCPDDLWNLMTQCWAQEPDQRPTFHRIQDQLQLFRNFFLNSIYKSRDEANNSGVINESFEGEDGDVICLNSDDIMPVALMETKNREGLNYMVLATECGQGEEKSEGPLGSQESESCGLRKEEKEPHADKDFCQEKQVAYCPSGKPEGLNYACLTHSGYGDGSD
T1 sequence (P08922 1883-2347 G2032R limits assumed): as the sequence (P08922 1883-2347 limits assumed) above, with G150R counted along it
T7 sequence (Q9UM73 1116-1392 L1196M/G1202R limits assumed): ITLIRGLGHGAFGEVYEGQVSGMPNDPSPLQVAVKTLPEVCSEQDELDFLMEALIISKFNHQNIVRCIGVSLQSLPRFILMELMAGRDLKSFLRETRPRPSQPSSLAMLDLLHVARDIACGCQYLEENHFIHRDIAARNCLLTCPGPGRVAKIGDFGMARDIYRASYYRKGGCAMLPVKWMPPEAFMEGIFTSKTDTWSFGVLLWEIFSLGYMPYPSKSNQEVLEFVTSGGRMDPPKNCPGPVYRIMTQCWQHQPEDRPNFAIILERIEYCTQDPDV
T8 sequence (Q9UM73 1116-1392 limits assumed): as the sequence (Q9UM73 1116-1392 L1196M/G1202R limits assumed) above, with M81L, R87G counted along it

Compound | IC50 [1] | IC50 [2] | Ki (ROS1-wt) | Ki (ROS1-G2032R) | IC50 [3] | IC50 [4] | Ki (ALK L1196M/G1202R) | Ki (ALK-wt) | Ki (TRKA-wt) | IC50 (Ba/F3 cells TPM3-TRKA) | TPM3-NTRK1-wt/CD74-ROS1-G2032R selectivity ratio [5] | TPM3-NTRK1-wt/CD74-ROS1-wt selectivity ratio [5] | TPM3-NTRK1-wt/EML4-ALK-L1196M-G1202R selectivity ratio [5] | TPM3-NTRK1-wt/EML4-ALK-wt selectivity ratio [5]
CCn1ncc2c1-c1cnc(N)c(c1)O[C@H](C)c1cc(F)ccc1-c1c(C#N)cnn1C2 [Example 3, (19R)-22-amino-3-ethyl-16-fluoro-19-methyl-20-oxa-3,4,8,9,23-pentaazapentacyclo[19.3.1.0^2,^6.08,^12.0^13,^18]pentacosa-1(24),2(6),4,9,11,13,15,17,21(25),22-decaene-11 carbonitrile] | 0.0001 to 0.05 µM | 0.0001 to 0.05 µM | < 0.05 µM | < 0.05 µM | 0.05 to 0.5 µM | 0.0001 to 0.05 µM | < 0.05 µM | < 0.05 µM | 0.05 to 0.5 µM | > 0.5 µM | A (bin A for very high selectivity, ratio >30-fold) | A (bin A for very high selectivity, ratio >30-fold) | C (bin C for moderate selectivity, ratio ≥1) | A (bin A for very high selectivity, ratio >30-fold)
CCn1ncc2c1-c1cnc(N)c(c1)O[C@H](C)c1cc(F)ccc1-n1ncnc1C2 [Example 38, (19R)-3-ethyl-16-fluoro-19-methyl-20-oxa-3,4,9,11,12,23-hexaazapentacyclo[19.3.1.0^2,^6.0^8,^12.0^13,^18]pentacosa-1(24),2(6),4,8,10,13,15,17,21(25),22-decaen-22-amine] | 0.0001 to 0.05 µM | 0.0001 to 0.05 µM | < 0.05 µM | < 0.05 µM | 0.05 to 0.5 µM | 0.0001 to 0.05 µM | < 0.05 µM | < 0.05 µM | 0.05 to 0.5 µM | > 0.5 µM | A (bin A for very high selectivity, ratio >30-fold) | A (bin A for very high selectivity, ratio >30-fold) | C (bin C for moderate selectivity, ratio ≥1) | A (bin A for very high selectivity, ratio >30-fold)
C[C@H]1Oc2cc(cnc2N)-c2c(C#N)noc2Cc2nn(C)nc2-c2ccc(F)cc21 [Example 25, (19R)-22-amino-16-fluoro-10,19-dimethyl-5,20-dioxa-4,9,10,11,23-pentaazapentacyclo[19.3,1.0^2,^6.0^8,^12.0^13,^18]pentacosa-1(24),2(6),3,8,11,13,15,17,21(25),22-decaene-3-carbonitrile] | 0.0001 to 0.05 µM | 0.05 to 0.5 µM | < 0.05 µM | 0.05 to 0.5 µM | > 0.5 µM | 0.0001 to 0.05 µM | 0.05 to 0.5 µM | < 0.05 µM | > 0.5 µM | > 0.5 µM | A (bin A for very high selectivity, ratio >30-fold) | A (bin A for very high selectivity, ratio >30-fold) | C (bin C for moderate selectivity, ratio ≥1) | A (bin A for very high selectivity, ratio >30-fold)

Now from value to molecule, other results behind:

IC50 [1] | IC50 [2] | Ki (ROS1-wt) | Ki (ROS1-G2032R) | IC50 [3] | IC50 [4] | Ki (ALK L1196M/G1202R) | Ki (ALK-wt) | Ki (TRKA-wt) | IC50 (Ba/F3 cells TPM3-TRKA) | Compound | TPM3-NTRK1-wt/CD74-ROS1-G2032R selectivity ratio [5] | TPM3-NTRK1-wt/CD74-ROS1-wt selectivity ratio [5] | TPM3-NTRK1-wt/EML4-ALK-L1196M-G1202R selectivity ratio [5] | TPM3-NTRK1-wt/EML4-ALK-wt selectivity ratio [5]
0.0001 to 0.05 µM | 0.0001 to 0.05 µM | < 0.05 µM | < 0.05 µM | 0.05 to 0.5 µM | 0.0001 to 0.05 µM | < 0.05 µM | < 0.05 µM | > 0.5 µM | > 0.5 µM | Cc1nn(CC2CC2)c2c1Cn1ncnc1-c1ccc(F)cc1[C@@H](C)Oc1cc-2cnc1N [Example 64, (19R)-3-(cyclopropylmethyl)-16-fluoro-5,19-dimethyl-20-oxa-3,4,8,9,11,23-hexaazapentacyclo[19.3.1.0^2,^6.0^8,^12.0^13,^18]pentacosa-1(24),2(6),4,9,11,13,15,17,21(25),22-decaen-22-amine] | A (bin A for very high selectivity, ratio >30-fold) | A (bin A for very high selectivity, ratio >30-fold) | A (bin A for very high selectivity, ratio >30-fold) | A (bin A for very high selectivity, ratio >30-fold)
0.0001 to 0.05 µM | 0.0001 to 0.05 µM | < 0.05 µM | < 0.05 µM | 0.0001 to 0.05 µM | 0.0001 to 0.05 µM | < 0.05 µM | < 0.05 µM | > 0.5 µM | > 0.5 µM | C[C@H]1Oc2cc(cnc2N)-c2c(cnn2CC2CC2)Cc2nn(C)nc2-c2ccc(F)cc21 [Example 69, (19R)-3-(cyclopropylmethyl)-16-fluoro-10,19-dimethyl-20-oxa-3,4,9,10,11,23-hexaazapentacyclo[19.3.1.0^2,^6.0^8,^12.0^13,^18]pentacosa-1(24),2(6),4,8,11,13,15,17,21(25),22-decaen-22-amine] | A (bin A for very high selectivity, ratio >30-fold) | A (bin A for very high selectivity, ratio >30-fold) | A (bin A for very high selectivity, ratio >30-fold) | A (bin A for very high selectivity, ratio >30-fold)
0.05 to 0.5 µM | 0.05 to 0.5 µM | < 0.05 µM | 0.05 to 0.5 µM | > 0.5 µM | 0.0001 to 0.05 µM | 0.05 to 0.5 µM | < 0.05 µM | 0.05 to 0.5 µM | 0.05 to 0.5 µM | CCc1noc2c1-c1cnc(N)c(c1)O[C@H](C)c1cc(F)ccc1-c1nnnn1C2 [Example 58, (19R)-3-ethyl-16-fluoro-19-methyl-5,20-dioxa-4,8,9,10,11,23-hexaazapentacyclo[19.3.1.0^2,^6.0^8,^12.0^13,^18]pentacosa-1(24),2(6),3,9,11,13,15,17,21(25),22-decaen-22-amine] | C (bin C for moderate selectivity, ratio ≥1) | A (bin A for very high selectivity, ratio >30-fold) | D (bin D for low selectivity, ratio <1) | C (bin C for moderate selectivity, ratio ≥1)
